Literature values as cited in patent US20110189299A1, “PHARMACEUTICAL COMPOSITION CONTAINING SURFACE-COATED MICROPARTICLES” (NITTO DENKO CORPORATION, priority 2008, published 2011).

For `CN(C)CCc1c[nH]c2ccc(C[C@H]3COC(=O)N3)cc12` [Zolmitriptan], the pKa is given as 9.5.
